# Patent publication US20160024414A1, “IONIC LIQUIDS AS L[…] BASE STOCKS, COBASE STOCKS AND MULTI[…]” ([…] AND ENGINEERING COMPANY, priority 2012, published 2016)
# Legend:
# [1] = Kinematic viscosity (ASTM D-445); format: physicochemical
# Experimental: The kinematic viscosity (Kv) of the ionic liquid products of Examples 2-5, 7 and 8 was measured using ASTM standards D-445 and reported at temperatures of 100° C. (Kv at 100° C.) or 40° C. (Kv at 40° C.). The viscosity index (VI) was measured according to ASTM standard D-2270 using the measured kinematic viscosities for each product.
substance,measurement,setting,value
1-butyl-3-hexylimidazolium bis(2-ethylhexyl) phosphate [Example 7],solubility in AN (alkylated naphthalene),solvent: AN (alkylated naphthalene),5%
dihexadecyldimethylammonium bis(2-ethylhexyl) phosphate [Example 8],solubility in PAO4 (in words),solvent: PAO4,soluble
tetradecylammonium bis(2-ethylhexyl) phosphate [Example 4],Kv100 (kinematic viscosity at 100° C.),[1],> 150 cSt
